Assay results as given in the NIST ThermoML archive (doi:10.1016/j.jct.2016.08.031).
Numbers after ± are expanded uncertainties.

Details: Liquid, Closed cell (Static) method

Row | SMILES | vapor or sublimation pressure (303.15 K) [kPa] | vapor or sublimation pressure (313.15 K) [kPa] | vapor or sublimation pressure (323.15 K) [kPa] | vapor or sublimation pressure (333.15 K) [kPa] | vapor or sublimation pressure (343.15 K) [kPa] | vapor or sublimation pressure (353.15 K) [kPa]
1 | CC(C)C [2-methylpropane] | 404.5 ± 1.2 | 530.9 ± 1.3 | 684.6 ± 1.4 | 869 ± 1.7 | 1087.4 ± 1.9 | 1343.4 ± 2.3
2 | F/C=C\C(F)(F)F [(Z)-1,3,3,3-tetrafluoro-1-propene] | 210.6 ± 1.1 | 290.7 ± 1.1 | 391.8 ± 1.2 | 517.4 ± 1.3 | 671.3 ± 1.4 | 859.2 ± 1.6
